PMC2759397 (Bioorganic & medicinal chemistry, 2009)

Experiments:
μ opioid receptors [1] = molecular target: T1, μ opioid receptors (Cavia porcellus, UniProt A0ACM8Q262); set-up: species or system guinea pig
δ opioid receptors = δ opioid receptors (Mus musculus, UniProt P32300); conditions: read-out: Agonist activity (% inhibition of contraction at 1 µM), MVD
delta opioid receptors = delta opioid receptors (Mus musculus, UniProt P32300)
μ opioid receptors [2] = molecular target: T1, μ opioid receptors; set-up: species or system guinea pig; conditions: read-out: Agonist activity (% inhibition of contraction at 1 µM), GPI/LMMP
opioid receptors = test: Radioligand competition assay, [3H]diprenorphine, rat brain membranes; type: binding; conditions: data not shown

T1 sequence (A0ACM8Q262 1-400): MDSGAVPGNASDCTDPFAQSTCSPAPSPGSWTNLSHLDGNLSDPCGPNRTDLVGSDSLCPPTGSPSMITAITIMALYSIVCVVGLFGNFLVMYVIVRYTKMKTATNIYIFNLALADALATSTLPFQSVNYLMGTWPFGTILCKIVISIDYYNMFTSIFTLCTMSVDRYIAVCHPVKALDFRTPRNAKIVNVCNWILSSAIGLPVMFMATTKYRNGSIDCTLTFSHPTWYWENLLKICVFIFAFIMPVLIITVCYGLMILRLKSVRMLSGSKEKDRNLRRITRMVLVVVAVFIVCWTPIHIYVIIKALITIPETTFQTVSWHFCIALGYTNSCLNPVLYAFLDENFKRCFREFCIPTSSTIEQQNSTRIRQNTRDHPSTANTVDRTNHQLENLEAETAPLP
δ opioid receptors, sequence (P32300 whole entry): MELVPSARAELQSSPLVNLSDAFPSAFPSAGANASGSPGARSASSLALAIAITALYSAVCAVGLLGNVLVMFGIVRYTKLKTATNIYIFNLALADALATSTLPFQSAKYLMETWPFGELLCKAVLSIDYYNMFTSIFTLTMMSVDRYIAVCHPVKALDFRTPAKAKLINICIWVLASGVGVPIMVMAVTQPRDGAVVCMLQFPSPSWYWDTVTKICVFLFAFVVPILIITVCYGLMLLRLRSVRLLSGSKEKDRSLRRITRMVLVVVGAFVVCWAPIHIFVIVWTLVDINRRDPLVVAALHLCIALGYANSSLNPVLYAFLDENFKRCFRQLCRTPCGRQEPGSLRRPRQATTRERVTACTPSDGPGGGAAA
delta opioid receptors, sequence (P32300 whole entry): as above

SMILES: Cc1c(CC(=O)O)c2ccccc2n1C1CCN(C)CC1 [Compound 9a, [2-methyl-1-(1-methyl-piperidin-4-yl)-1H-indol-3-yl]-acetic acid]
- PL-017 Antagonism at 1 µM in the GPI/LMMP (μ opioid receptors [1]): none at 1 µM
- inhibition at 1 µM (δ opioid receptors): 17.9%
- DPDPE Antagonism at 1 µM in the MVD (delta opioid receptors): none at 1 µM
- inhibition at 1 µM (μ opioid receptors [2]): 0.7%

SMILES: Cc1c(CC(=O)O)c2ccccc2n1C1CCN(CCc2ccccc2)CC1 [Compound 9c, [2-methyl-1-(1-phenethyl-piperidin-4-yl)-1H-indol-3-yl]-acetic acid]
- PL-017 Antagonism at 1 µM in the GPI/LMMP (μ opioid receptors [1]): none at 1 µM
- inhibition at 1 µM (δ opioid receptors): 19.5%
- DPDPE Antagonism at 1 µM in the MVD (delta opioid receptors): none at 1 µM
- inhibition at 1 µM (μ opioid receptors [2]): 3.1%
- inhibition constants against binding of [3H]diprenorphine (opioid receptors): micromolar range

SMILES: COc1ccc2c(c1)c(CC(=O)O)c(C)n2C1CCN(C)CC1 [Compound 9d, [5-methoxy-2-methyl-1-(1-methyl-piperidin-4-yl)-1H-indol-3-yl]-acetic acid]
- PL-017 Antagonism at 1 µM in the GPI/LMMP (μ opioid receptors [1]): none at 1 µM
- inhibition at 1 µM (δ opioid receptors): 2.8%
- DPDPE Antagonism at 1 µM in the MVD (delta opioid receptors): none at 1 µM
- inhibition at 1 µM (μ opioid receptors [2]): 0%

SMILES: COc1ccc2c(c1)c(CC(=O)O)c(C)n2C1CCN(CCc2ccccc2)CC1 [Compound 9f, [5-methoxy-2-methyl-1-(1-phenethyl-piperidin-4-yl)-1H-indol-3-yl]-acetic acid]
- PL-017 Antagonism at 1 µM in the GPI/LMMP (μ opioid receptors [1]): none at 1 µM
- inhibition at 1 µM (δ opioid receptors): 0%
- DPDPE Antagonism at 1 µM in the MVD (delta opioid receptors): none at 1 µM
- inhibition at 1 µM (μ opioid receptors [2]): 6%
- inhibition constants against binding of [3H]diprenorphine (opioid receptors): micromolar range
